Measurements reported in patent US5516783A, “4-(1H-2-methylimidazo[4,5-c]pyridinylmethyl)phenylsulphonamide derivatives as antagonist of PAF” (British Biotech Pharmaceuticals Limited, priority 1992, dated 1996).

What follows are compounds tested on platelet activating factor (assay: antagonism of platelet activating factor (statement in words)). Details: not given.

Row | SMILES | antagonism of platelet activating factor (in words)
1 | Cc1nc2ccn(Cc3ccc(S(=O)(=O)N(C)Cc4cccs4)cc3)cc-2n1 [N-methyl-N-4-(5H-2-methylimidazo[4,5-c]pyridinylmethyl)phenylsulphonyl-2-thienylmethylamine] | are antagonists of platelet activating factor
2 | Cc1nc2ccncc2n1Cc1ccc(S(=O)(=O)N(C)Cc2cccs2)cc1 [N-methyl-N-4-(3 H-2-methylimidazo[4,5-c]pyridinylmethyl)phenylsulphonyl-2-thienylmethylamine] | are antagonists of platelet activating factor

What follows are compounds tested on PAF-induced hypotension (assay: reversal of hypotension caused by an infusion of PAF in rats). Details: iv; i.v. bolus; PAF 100 ng/kg/min infused i.v.; anaesthetised rat; read-out: inhibition of PAF-induced hypotension in the rat, ED50 (dose to cause a 50% reversal of the hypotensive PAF response).
Format: in vivo, Male Sprague-Dawley rats
Description: Male Sprague-Dawley rats (300-350 g) were anaesthetised with a mixture of sodium pentobarbitone, 22.5 mg/kg and thiopental 62.5 mg/kg. Through a midline incision in the neck, the trachea was cannulated and the animals breathed spontaneously. A carotid artery was cannulated for the measurement of blood pressure and this signal was used to trigger a rate meter to measure heart rate. Both jugular veins were cannulated: one for the infusion of PAF and the other for the bolus administration of test compounds.
PAF, 100 ng/kg/min was infused i.v. until a sustained fall in mean blood pressure of 50 mmHg was achieved. […] The peak of this reversal was measured and the dose to cause a 50% reversal of the hypotensive PAF response (ED50) calculated by straight line interpolation and the results are presented in Table 2.

Row | SMILES | ED50
3 | CC(=O)Oc1ccccc1C(=O)OC[C@H](CC(C)C)N(C)S(=O)(=O)c1ccc(Cn2c(C)nc3cnccc32)cc1 [Example 49, O-2-Acetoxybenzoyl-N-methyl-N-4-(1H-2-methylimidazo[4,5-c]pyridinylmethyl)phenylsulphonyl-L-leucinol] | 2.2 µg/kg
4 | CCCCCCCCCCCCCCCCCC(=O)OC[C@H](CC(C)C)N(C)S(=O)(=O)c1ccc(Cn2c(C)nc3cnccc32)cc1 [Example 44, O-Octadecanoyl-N-methyl-N-4-(1H-2-methylimidazo[4,5-c]pyridinylmethyl)phenylsulphonyl-L-leucinol] | 4.6 µg/kg
5 | CN(C(=O)c1ccc(Cn2cnc3cnccc32)cc1)C1CCCCC1 [Comparative Example, N-Cyclohexyl-N-methyl-4-(1H-imidazo[4,5-c]pyridinylmethyl)benzamide, reference compound] | 150 µg/kg
6 | CCc1noc([C@H](CC(C)C)N(C)S(=O)(=O)c2ccc(Cn3c(C)nc4cnccc43)cc2)n1 [Example 156, N-Methyl-N-4-(1H-2-methylimidazo[4,5-c]pyridinylmethyl)phenylsulphonyl-1-(3-ethyl-1,2,4-oxadiazol-5-yl)-3-methylbutylamine] | 0.6 µg/kg
7 | Cc1nc2cnccc2n1Cc1ccc(S(=O)(=O)N(C)[C@H](COC(=O)NCc2ccccn2)CC(C)C)cc1 [Example 108, O-Pyridin-2-ylmethylaminocarbonyl-N-methyl-N-4-(1H-2-methylimidazo[4,5-c]pyridinylmethyl)phenylsulphonyl-L-leucinol] | 6.6 µg/kg
8 | COc1ccc(SCC(=O)OC[C@H](CC(C)C)N(C)S(=O)(=O)c2ccc(Cn3c(C)nc4cnccc43)cc2)cc1OC [Example 78, O-2-(3,4-Dimethoxyphenylmercapto)ethanoyl-N-methyl-N-4-(1H-2-methylimidazo[4,5-c]pyridinylmethyl)phenylsulphonyl-L-leucinol] | 5.8 µg/kg

What follows are compounds tested against T1, platelet activating factor (PAF) receptor (human platelet plasma membrane) (Homo sapiens, UniProt P25105) (assay: inhibition of [^3 H]-PAF receptor binding to human platelet plasma membrane). Details: [^3 H]-PAF 0.5 nM, 0° C., 1 hour, pH 7.0.
T1 construct: Platelet concentrates were obtained from a hospital blood bank; from tissue; host or cells: human platelets (hospital blood bank concentrates), lysed plasma membrane preparation
T1 sequence (P25105 whole entry): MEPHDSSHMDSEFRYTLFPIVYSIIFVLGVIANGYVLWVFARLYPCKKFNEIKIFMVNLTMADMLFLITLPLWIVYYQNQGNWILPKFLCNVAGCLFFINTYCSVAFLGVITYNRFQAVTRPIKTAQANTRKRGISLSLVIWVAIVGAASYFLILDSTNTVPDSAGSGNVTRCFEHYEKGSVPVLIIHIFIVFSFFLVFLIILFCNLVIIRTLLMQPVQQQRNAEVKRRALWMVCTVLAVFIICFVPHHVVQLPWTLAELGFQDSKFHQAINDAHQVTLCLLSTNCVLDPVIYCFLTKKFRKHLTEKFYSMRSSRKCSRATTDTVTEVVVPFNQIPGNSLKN
Description: The inhibition of [^3 H]-PAF binding to human platelet plasma membrane by compounds of general formula I was determined by isotopic labelling and filtration techniques. Platelet concentrates were obtained from a hospital blood bank. These platelet concentrates (500-2500 ml.) were centrifuged at 800 rpm for 10 minutes in a SORVALL RC3B centrifuge to remove the red blood cells present. (The word SORVALL is a trade mark.) The supernatant was subsequently centrifuged at 3,000 rpm in a SORVALL RC3B centrifuge to pellet the platelets present. The platelet rich pellets were resuspended in a minimum volume of buffer (150 mM NaCl, 10 mM Tris, 2 mM EDTA, pH 7.5) and layered onto Ficoll-Paque gradients, 9 ml platelet concentrate to 2 ml Ficoll, and centrifuged at 1,900 rpm for 15 minutes in a SORVALL RT6000 centrifuge. This step removes the residual red blood cells and other nonspecific material such as lymphocytes from the preparation. The platelets which form a band between the plasma and the Ficoll were removed, resuspended in the above buffer and centrifuged at 3,000 rpm for 10 minutes in a SORVALL RT6000 centrifuge. The pelleted platelets were resuspended in buffer (10 mM Tris, 5 mM MgCl2, 2 mM EDTA, pH 7.0), snap freezed in liquid N2 and allowed to thaw slowly at room temperature in order to lyse the platelets. The latter step was repeated at least 3 times to ensure proper lysis. The lysed platelets were centrifuged at 3,000 rpm for 10 minutes in a SORVALL RT6000 centrifuge and resuspended in buffer. The latter step was repeated twice in order to remove any cytoplasmic proteins which may hydrolyse the platelet activating factor (PAF) receptor. The prepared platelet membranes may be stored at -70° C. After thawing the prepared membranes were centrifuged in a SORVALL RT6000 at 3,000 rpm for 10 minutes and resuspended in assay buffer.
The assay was conducted by preparing a series of Tris-buffered solutions of the selected antagonist of predetermined concentrations. Each of these solutions contained [^3 H]-PAF (0.5 nM; 1-O-[^3 H]octadecyl-2-acetyl-sn-glycero-3-phosphoryl choline with a specific activity of 132 Ci/mmol), unlabelled PAF (1000 nM), a known amount of the test antagonist, and a sufficient amount of Tris-buffer solution (10 mM Tris, 5 mM MgCl2, pH 7.0, 0.25% BSA) to make the final volume 1 ml. Incubation was initiated by the addition of 100 μg of the isolated membrane fraction to each of the above solutions at 0° C. Two control samples, one (C1 ) which contained all the ingredients described above except the antagonist and the other (C2) contains C1 plus a 1000-fold excess of unlabelled PAF, were also prepared and incubated simultaneously with the test samples.
After 1 hour incubation, each solution was filtered rapidly under vacuo through a WHATMAN GF/C glass fibre filter in order to separate unbound PAF from bound PAF. (The word WHATMAN is a trade mark.) The residue in each case was rapidly washed 4 times with 5 ml cold (4° C.) Tris-buffer solution. Each washed residue was dried under vacuum on a sampling manifold and placed into vials containing 20 ml of OPTIPHASE MP scintillation fluid and the radioactivity counted in a liquid scintillation counter. (The word OPTIPHASE is a trade mark.) Defining the counts for total binding with antagonist from a test sample as "TBA"; the counts for total binding from the control sample C1 as "TB"; and the counts for nonspecific binding from the control sample C2 as "NSB", the percent inhibition of each test antagonist can be determined by the following equation:
Inhibition=[(TB-TBA)/SB]×100
where the specific binding SB=TB-NSB
Table 1 lists results from this assay for inhibition of [^3 H]-PAF receptor binding for illustrative examples of the compounds of this invention. […]

Row | SMILES | IC50
9 | CCC(=O)OC[C@H](CC(C)C)N(C)S(=O)(=O)c1ccc(Cn2c(C)nc3cnccc32)cc1 [Example 45, O-Propanoyl-N-methyl-N-4-(1H-2-methylimidazo[4,5-c]pyridinylmethyl)phenylsulphonyl-L-leucinol] | 0.5 nM
10 | CC(=O)Oc1ccccc1C(=O)OC[C@H](CC(C)C)N(C)S(=O)(=O)c1ccc(Cn2c(C)nc3cnccc32)cc1 [Example 49, O-2-Acetoxybenzoyl-N-methyl-N-4-(1H-2-methylimidazo[4,5-c]pyridinylmethyl)phenylsulphonyl-L-leucinol] | 2 nM
11 | Cc1nc2cnccc2n1Cc1ccc(S(=O)(=O)N(C)[C@H](CO)CC(C)C)cc1 [Example 1, N-Methyl-N-4-(1H-2-methylimidazo[4,5-c]pyridinylmethyl)phenylsulphonyl-L-leucinol] | 7 nM
12 | CCCCCCCCCCCCCCCCCC(=O)OC[C@H](CC(C)C)N(C)S(=O)(=O)c1ccc(Cn2c(C)nc3cnccc32)cc1 [Example 44, O-Octadecanoyl-N-methyl-N-4-(1H-2-methylimidazo[4,5-c]pyridinylmethyl)phenylsulphonyl-L-leucinol] | 1 nM
13 | CCOC(=O)C(=O)OC[C@H](CC(C)C)N(C)S(=O)(=O)c1ccc(Cn2c(C)nc3cnccc32)cc1 [Example 47, O-Ethyloxaloyl-N-methyl-N-4-(1H-2-methylimidazo[4,5-c]pyridinylmethyl)phenylsulphonyl-L-leucinol] | 2 nM
14 | Cc1noc([C@H](CC(C)C)N(C)S(=O)(=O)c2ccc(Cn3c(C)nc4cnccc43)cc2)n1 [Example 155, N-Methyl-N-4-(1H-2-methylimidazo[4,5-c]pyridinylmethyl)phenylsulphonyl-1-(3-methyl-1,2,4-oxadiazol-5-yl)-3-methylbutylamine] | 2 nM
15 | CCCCCCCCCCCCCCCCCCNC(=O)OC[C@H](CC(C)C)N(C)S(=O)(=O)c1ccc(Cn2c(C)nc3cnccc32)cc1 [Example 109, O-Octadecylaminocarbonyl-N-methyl-N-4-(1H-2-methylimidazo[4,5-c]pyridinylmethyl)phenylsulphonyl-L-leucinol] | 3 nM
16 | CC1=C(/C=C/C(C)=C/C=C/C(C)=C/C(=O)OC[C@H](CC(C)C)N(C)S(=O)(=O)c2ccc(Cn3c(C)nc4cnccc43)cc2)C(C)(C)CCC1 [Example 79, O-Retinoyl-N-methyl-N-4-(1H-2-methylimidazo[4,5-c]pyridinylmethyl)phenylsulphonyl-L-leucinol] | 4 nM
